Test results taken from PMC10222203 (Pharmaceutics, 2023).
Where two headings read alike, the source gives them in different places.

Columns and labels:
[1] = rat, tissue homogenate
[2] = rat, plasma, Fraction unbound in plasma, fu,plasma, undiluted rat plasma, 1 µM, equilibrium dialysis 6 h 37 °C
Protocol: (§8) Peptide binding to plasma proteins, brain tissue homogenate, and lung tissue homogenate as well as to neuronal and astrocyte cell culture homogenates was investigated using equilibrium dialysis [47]. Undiluted plasma and brain from three peptide-naïve rats were used in the experiment. The brain homogenate was prepared by homogenizing 1 part brain with 4 parts of phosphate-buffered saline (PBS, pH 7.4). […] Semi-permeable membranes with a molecular weight cut-off of 12–14 kDa were used and placed in an HTD96b apparatus (HTDialysis, Gales Ferry, CT, USA). The undiluted plasma and respective homogenates were spiked with individual peptide to a concentration of 1 µM and were dialyzed against PBS (pH 7.4). Five technical replicates were prepared per biological replicate. The experiment was run for 6 h at 37 °C in a MaxQ4450 shaker (Thermo Fisher Scientific, NinoLab, Sweden) at 200 rpm. […] Aliquots (80 µL) were taken from the buffer and plasma/homogenate sides. To compensate for any differences in matrix during bioanalysis, the plasma and homogenate samples were mixed with equal volumes of blank buffer, and the buffer samples were mixed with an equal volume of relevant blank plasma/homogenate. Spiked plasma and respective homogenate samples were incubated to control for relative recovery and thermal stability of the peptides in respective matrices.
(§9) The unbound fraction in undiluted plasma was calculated using Equation (5), where Cbuffer is the unbound concentration of peptide in the buffer and Cplasma is the total concentration of peptide in plasma at 6 h. The binding of peptide in various homogenates was assessed in two steps. First, the fraction of unbound peptide in the diluted homogenate, fu,h,D, was calculated using Equation (6), where Chomogenate is the total concentration of peptide in respective homogenate at 6 h. Second, the correction for the dilution was implemented as described in Equation (7), where D is the dilution factor used in the preparation [47]. D was 5 for brain and lung homogenates and on average 35.3 for the cell culture studies, as determined based on the total protein content and the total volume of lysate. (5) fu,plasma=Cbuffer/Cplasma (6) fu,h,D=Cbuffer/Chomogenate (7) fu,tissue/cell=1/D/((1/fu,h,D )−1)+1/D

[3] = system: brain-like endothelial cells (BLECs); assay: in vitro
Protocol: (§1) The in vitro BBB model, consisting of CD34^+ endothelial cells (ECs) derived from hematopoietic stem cells in co-culture with bovine brain pericytes, was established as described by Cecchelli et al.. Written and informed consent was obtained for the collection of human umbilical cord blood, in compliance with French legislation. […] All experiments were carried out in line with the authorized protocol.
(§2) These isolated CD34+ cells were cultured in EGM-2, supplemented with 20% (v:v) FBS and 50 ng/mL vascular endothelial growth factor on 1% (w:v) gelatine-coated 24-well plates (2 × 10^5 cells/well). After 15–20 days, ECs are seen in the culture dish. For each experiment, the cells were expanded in 1% (w:v) gelatine-coated T75 flasks (BD Biosciences, Le Pont-de-Claix, France) in EGM-2. Bovine brain pericytes were isolated and characterized as described by Vandenhaute et al.. Sub-clones were cultured in Dulbecco’s Modified Eagle’s Medium supplemented with 20% (v:v) FBS, 2 mM L-glutamine, 50 µg/mL gentamycin, and 1 ng/mL basic fibroblast growth factor. At confluency, 5 × 10^4 cells were seeded in ECM-5 with 5% (v:v) FBS, 50 µg/mL gentamycin, and 0.5% endothelial cell growth factor in gelatine-coated 12-well plates (Costar, Corning Inc., New York, NY, USA). CD34^+-derived ECs were seeded at 8 × 10^4 cells per Matrigel-coated (BD Biosciences) insert (3401, Corning Inc., NY, USA) and put in co-culture with the bovine brain pericytes, with the pericytes at the bottom of the well, for 6 days to achieve brain-like endothelial cell (BLEC) characteristics (Figure 4b).
(§3) At the beginning of the permeability experiments, inserts with BLEC monolayers were transferred to new abluminal (receiver) compartments previously filled with 1.5 mL of RH buffer, and 500 µL of the compounds dissolved in RH buffer, with the addition of the paracellular marker sodium fluorescein (NaFlu), were added to the luminal (donor) compartment. After 3 h of incubation at 37 °C, with a shaking velocity of 60 rpm, aliquots were taken from the donor and receiver compartment. The BLEC monolayers were washed twice with cold RH buffer and lysed with RLT Lysis buffer. The samples were kept at −20 °C pending analysis in low-binding tubes.
(§4) An increase in the permeability to NaFlu in the presence of the peptide can indicate an increase in paracellular leakage and consequent loss of barrier integrity. To evaluate the ability of test compounds to cross Matrigel-coated filters without cells and to control for the adsorption to plastics and/or Matrigel, the NaFlu and peptide’s permeability over inserts without cells were also assessed. Mass balance (M.B%) was calculated from the amount of compound recovered in both compartments at the end of the experiment divided by the total amount added to the donor compartment at the start of the experiment.
(§5) Samples from both compartments as well as the lysed endothelial cells were analysed for fluorescence using a Synergy H1 (Biotek) set to quantify NaFlu (wavelengths Excitation 490 nm and Emission 525 nm) and with UPLC-MS/MS to assess the permeability and cellular uptake of the peptides. All experiments were performed in triplicate (n = 3 independent experiments per concentration and cCPPs).
(§6) Papp is the apparent permeability, J is the rate of appearance of the compound in the receiver compartment (amount/sec), and C0 is the concentration in the donor compartment at the start of the experiment (amount/mL).

in vitro [4] = assay: in vitro
Protocol: as §1, §2, §3, §4, §5, §6

lung slices = details: rat lung slices, 200 nM, 5 h, 37 °C
Protocol: (§7) In short, lung slices were prepared by performing an in situ perfusion of the lungs of the rats with physiological saline and then filling them with agarose Type VII-A to facilitate slicing. Slices of 500 µm thickness were prepared using the Leica VT1200 microtome slicer (Leica Microsystems, Wetzlar, Germany). […] After a 5 h incubation at 37 °C in an incubated shaker (MaxQ4450 Thermo Fisher Scientific, NinoLab, Stockholm, Sweden) with a rotation speed of 45 rpm, the buffer and lung slices were sampled. To match the matrix of the lung slice samples, 200 μL of aECF was mixed with 200 μL of blank agarose-filled lung homogenate (1:4, w:v). The lung slices were individually removed, dried on filter paper, weighed, and thereafter homogenized in 9 volumes (w:v) of aECF with an ultrasonic processor (VCX-130; Sonics, Chemical Instruments AB, Stockholm, Sweden). All samples were stored at −20 °C pending LC-MS/MS analysis. Assuming that at equilibrium the concentration of the peptide in virtually protein-free buffer is equal to the interstitial fluid concentration in the lung slice, the Vu,lung (mL/g lung) was estimated using Equation (4) as a ratio of the amount of compound in the lung slice (Alung, nanomoles g lung) to the measured final buffer concentration (Cbuffer, micromole/L). […]

[5] = rat
Protocol: as §7

[6] = design: method as in PubChem; details: estimates from PubChem; ref PubChem; cited from earlier work
[7] = cell lysates vs brain homogenate, on average
in vitro [8] = details: rat, undiluted plasma, pH 7.4, Fraction unbound in plasma, fu,plasma, equilibrium dialysis 6 h 37 °C
Protocol: as §8, §9

Compound | fraction unbound [1] | fraction unbound [2] | Percent of the initial amount in the lysed endothelial cells ([3]; BLECs exposed to 1000 nM peptide) [%] | Percent of the initial amount in the lysed endothelial cells ([3]; BLECs exposed to 2000 nM peptide) [%] | Percent of the initial amount in the lysed endothelial cells ([3]; BLECs exposed to 4000 nM peptide) [%] | Percent of the initial amount in the lysed endothelial cells ([3]; BLECs pre-exposed to 500 nM peptide) [%] | Papp (in vitro [4]; Endothelial permeability, Pe (average across concentrations), BLEC monolayer, 3 h, 37 °C) [nm/s] | Papp (in vitro [4]; Papp, human in vitro BBB model, value used in simulation (Table S3)) [nm/s] | Vu,lung (lung slices) [mL/g lung] | Kp uu [5] | Predicted net charge [6] | fu,cell fold lower than fu,brain [7] [fold] | Detection in the lysed endothelial cells ([3]; BLECs at end of transport experiment) | Papp A→B at 3 h (in vitro [4]; human, pH 7.4) [nm/s] | Papp at 3 h (in vitro [4]; human, pH 7.4, Endothelial permeability, Pe (average across concentrations), BLEC monolayer, 3 h, 37 °C) [nm/s] | fraction unbound at 6 h, 1 µM (in vitro [8])
CC(C)C[C@@H]1NC(=O)CNC(=O)[C@H](CC(N)=O)NC(=O)[C@H](CCCNC(=N)N)NC(=O)[C@H]([C@@H](C)O)NC(=O)[C@@H]2CSSC[C@@H]3NC(=O)[C@H]([C@@H](C)O)NC(=O)CNC(=O)CNC(=O)[C@H](C(C)C)NC(=O)[C@@H]4CSSC[C@H](NC(=O)[C@H]([C@@H](C)O)NC(=O)[C@H](CSSC[C@H](NC(=O)[C@H](C(C)C)NC(=O)[C@@H]5CCCN5C1=O)C(=O)NCC(=O)N[C@@H](CCC(=O)O)C(=O)N[C@@H]([C@@H](C)O)C(=O)N4)NC(=O)CNC(=O)[C@@H]1CCCN1C(=O)[C@H]([C@@H](C)O)NC(=O)[C@H](CC(N)=O)NC3=O)C(=O)N[C@@H](CO)C(=O)N[C@@H](Cc1c[nH]c3ccccc13)C(=O)N1CCC[C@H]1C(=O)N[C@@H](C(C)C)C(=O)N2 [Kalata B1] | 0.0377 ± 0.0079 | 0.3 | 0.09 | 0.23 | 3.50 | 0.19 | 38.3 | 31.9 | 1.23 | 0.195 ± 0.107 |  |  |  |  |  | 
CC[C@H](C)[C@@H]1NC(=O)[C@@H]2CCCN2C(=O)[C@@H]2CCCN2C(=O)[C@H]([C@@H](C)CC)NC(=O)[C@H](CO)NC(=O)[C@H](CCCCN)NC(=O)[C@H]([C@@H](C)O)NC(=O)[C@@H]2CSSC[C@H](NC1=O)C(=O)N[C@@H](Cc1ccccc1)C(=O)N1CCC[C@H]1C(=O)N[C@@H](CC(=O)O)C(=O)NCC(=O)N[C@@H](CCCNC(=N)N)C(=O)N2 [SFTI-1, sunflower trypsin inhibitor-1] |  |  |  |  |  |  |  |  |  |  | 0 | 3 | did not detect | 26.2 | 38 | 0.94
